What was measured:
intestinal microflora = assay: Microflora analysis of feces of the mice (OTU clustering, heatmap, PLS-DA, metagenomeSeq); type: in vivo
Experimental: (§1) A number of 5-week-old male BALB/c strain mice are selected and randomly divided into groups. The experimental period is 18 days. The temperature of rearing environment of the mice in each group is maintained at 22±2° C., with a day and night cycle of 12 hours each.
After the test in embodiment 4, the feces of the mice in each group are collected, and sequence analysis of the feces of the mice in each group is outsourced, and then similarity (greater than 97%) OTUs (Operational Taxonomic Units) clustering and species classification analysis are performed. According to the species annotation results, the top 10 species with relative abundance in the mice in each group in the phylum are selected. Wherein fecal sequencing analysis and microflora analysis are known to a person having ordinary skill in the art to which the invention pertains; generally speaking, the fecal samples are firstly performed with DNA extraction and purification, followed by PCR amplification, purification and sequencing, the sequencing results will go through steps of paired sequence splicing (Raw Tags) and filtering to obtain identifiable valid data, and then OTUs clustering and species classification analysis are performed.
According to the species annotation information and abundance information of all the groups in each taxonomic rank, the top 35 genera in abundance are selected, and the group abundance is the average abundance of all the samples in the group. Clustering is performed at the species level to draw a species heatmap of the fecal samples in each group, the results are shown in FIG. 9.
Partial least square discriminant analysis (PLS-DA) is used to analyze the β-diversity of microbial flora in the feces of the mice in each group to determine whether there is a difference in bacterial flora among the microflora of the mice in each group. The microflora data of the mice in each group are analyzed by metagenomeSeq to evaluate specific differences between the microflora of the mice in each group, and the results are shown in FIG. 11A to FIG. 11D.

IL-6 = assay: Concentration of IL-6 in the serum of the mice (commercial kit); type: in vivo; conditions: same regimen, after the test period; FIG. 5
Experimental: as §1, with “each. […] After the test period in embodiment 4, the serum of the mice in each group is collected respectively, and the concentration of IL-6 in the serum of the mice in each group is analyzed with a commercial kit.” for “each.”

BALB/c strain mice = assay: Animal test: body weight, food intake and diarrhea index of mice given 5-FU drug; type: in vivo
Experimental: as §1
Body weight and feed intake of the mice in each group are measured and recorded every day during the testing period. The results are shown in FIG. 2 and FIG. 3; after administration of 5-FU drug, the feces of the mice in each group are collected, and the diarrhea index of the mice in each group is evaluated, the results are shown in FIG. 4.

[1] = test system: large intestine and small intestine tissues; assay: Length of large intestine and hematoxylin-eosin staining of small and large intestine tissues of the mice; type: in vivo; conditions: same regimen
Experimental: A number of 5-week-old male BALB/c strain mice are selected and randomly divided into groups. The experimental period is 18 days. The temperature of rearing environment of the mice in each group is maintained at 22±2° C., with a day and night cycle of 12 hours each. […] After the test period in embodiment 4, large intestine and small intestine tissues of the mice in each group are collected, and a length of the large intestine of the mice in each group is measured respectively, the results are shown in FIG. 6; the large intestine and small intestine of the mice in each group are sliced respectively, and stained with hematoxylin-eosin, the results are shown in FIGS. 7A and 7B.

[2] = test system: chemotherapy-induced diarrhea; conditions: literature, cited from earlier work

Compound: NC(=O)CC[C@H](N)C(=O)O [glutamine, L-glutamine]
- relative abundance of Proteobacteria in feces (intestinal microflora; FIG. 8, compared with 5-FU only (group 2)): can be reduced
- abundances of the microflora associated with diarrhea and enteritis (Escherichia shigella, Odoribacter) (intestinal microflora; FIG. 9 heatmap, compared with group 2): lower than that of the mice in group 2
- microflora distribution (PLS-DA, β-diversity) (intestinal microflora; FIG. 10, relative to group 2): close to that of the mice in group 2
- relative abundance of UBA1819 (intestinal microflora; metagenomeSeq, FIG. 11A, compared with group 2): can not be significantly reduced
- relative abundance of Staphylococcus (intestinal microflora; metagenomeSeq, FIG. 11B, compared with group 2): can not be significantly reduced
- relative abundance of Escherichia shigella (intestinal microflora; metagenomeSeq, FIG. 11C, compared with group 2): can be significantly reduced
- relative abundance of Muribaculum (intestinal microflora; metagenomeSeq, FIG. 11D, compared with group 2 (5-FU only)): significantly reduced
- concentration of IL-6 in the serum (IL-6): significantly lower than that of the mice in group 2
- body weight (BALB/c strain mice; 5-FU 50 mg/kg/day i.p. days 11-13, BC198 5×10^8/day and/or glutamine 1 g/kg/day oral daily, 18 days, FIG. 2): able to maintain their body weight
- food intake (BALB/c strain mice; same regimen, FIG. 3, group 5 statement for days 14-15): able to maintain their body weight and food intake
- diarrhea index (BALB/c strain mice; same regimen, FIG. 4, compared with 5-FU only (group 2), days 14-15): able to alleviate the diarrhea caused by 5-FU drug
- length of large intestine ([1]; after the test period, FIG. 6): maintain their large intestine lengths
- structure of small and large intestine tissues (hematoxylin-eosin) ([1]; FIGS. 7A and 7B, compared with 5-FU only (group 2)): able to mitigate lesion to the structures of the small and large intestines induced by 5-FU drug
- doxifluridine-induced diarrhea [2]: incapable of inhibiting
- severity of 5-FU/calciumfolinate-induced stomatitis, nausea and diarrhea [2]: incapable of mitigating severity
- duration of chemotherapy-induced diarrhea ([2]; patients): capable of reducing the duration
- severity of chemotherapy-induced diarrhea ([2]; patients): incapable of improving its severity

Reference: patent US20230293601A1 (SYNGEN BIOTECH CO., LTD., priority 2022, published 2023)
